This note sets out measurements from US20260200943A1, “COMPOUNDS FOR TREATING CANCER” (Genesis Therapeutics, Inc., priority 2022, published 2026).

Bounds are passed on as bounds.

What all share (type): biochemical
Experiment [1] concerns the target T1, CDK9/CyclinT1 (Homo sapiens, UniProt P50750). Nature of the experiment: CDK9/CyclinT1 Mobility Shift Assay (Caliper, Table B). The following applies: read-out: CDK9/Cyclin T1 Caliper Ki: Average Ki. Also on record: Wild-type, full length CDK9 in complex with wildtype, CyclinT1 (1-259): Biortus Cat #BP480/792/691; purchased Biortus BP480/792/691. The method, then: (§1) 10 nL of 2000× compound in 100% DMSO is added to a 384-well polypropylene assay plate. 15 μL of 1.3×CDK9/T1 and 1.3× fluorescent substrate (Wild-type, full length CDK9 in complex with wildtype, CyclinT1 (1-259): Biortus Cat #BP480/792/691 and FL-Peptide 34: PerkinElmer Cat #760643) diluted in kinase buffer (50 mM Hepes, 0.01% Brij-35, 10 mM MgCl2, 1 mM EGTA, 0.05% BSA, and 2 mM DTT) is added to the plates on top of the compound, mixed, and pre-incubated for 30 minutes at room temperature. The fluorescently labeled peptide substrate is phosphorylated by CDK9/T1 upon ATP hydrolysis. Following the incubation, 5 μL of 4×ATP diluted in kinase buffer is added to the plate to initiate the reaction. Following the 30-minute incubation, the reaction is stopped by adding 75 μL of stopping buffer containing 0.5 M EDTA.
(§2) The assay plate is then read on a Lab Chip EZ Reader which separates the fluorescently labeled substrate and product peptides through a mobility difference. The phosphorylation of the substrate imparts a negative charge, which allows differences in separation as both are pulled through the microfluidic chip. The ratio of substrate and product values are used to generate percent conversion. These raw percent conversion values are normalized to calculate percent inhibition, which are fit to a four-parameter logistic curve and IC50 values are calculated. IC50 values are converted to Ki using substrate, Kmapp values, and the Cheng-Prusoff equation.
Target sequence in this assay (P50750 whole entry): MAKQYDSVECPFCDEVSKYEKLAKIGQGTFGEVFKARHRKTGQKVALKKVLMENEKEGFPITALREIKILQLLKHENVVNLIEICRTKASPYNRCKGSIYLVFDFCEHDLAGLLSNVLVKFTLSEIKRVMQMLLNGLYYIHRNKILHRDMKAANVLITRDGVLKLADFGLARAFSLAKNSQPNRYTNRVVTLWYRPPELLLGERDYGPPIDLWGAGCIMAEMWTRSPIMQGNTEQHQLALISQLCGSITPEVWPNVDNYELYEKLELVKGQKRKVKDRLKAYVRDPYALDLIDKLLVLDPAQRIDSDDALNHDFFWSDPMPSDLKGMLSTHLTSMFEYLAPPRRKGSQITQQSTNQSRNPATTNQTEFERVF
Target sequence in this assay (O60563 1-259 partner limits assumed): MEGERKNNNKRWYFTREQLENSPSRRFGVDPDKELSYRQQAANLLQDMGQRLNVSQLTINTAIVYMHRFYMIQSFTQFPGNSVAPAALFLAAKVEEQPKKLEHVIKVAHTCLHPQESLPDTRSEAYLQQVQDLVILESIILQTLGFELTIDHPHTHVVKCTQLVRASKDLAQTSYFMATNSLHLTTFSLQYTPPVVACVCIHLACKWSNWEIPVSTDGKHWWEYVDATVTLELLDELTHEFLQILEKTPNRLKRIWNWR

Experiment [2] deals with T1, CDK9/CyclinT1. Nature of the experiment: CDK9/CyclinT1 ChEF Assay (Table A). More on the design: Wild-type, full length CDK9 in complex with wildtype, full length CyclinT1: Invitrogen Cat #PV4131; purchased Invitrogen PV4131. The settings on record: 10xKm, read-out: CDK9/CCNT1 ChEF 10xKm Ki: Average Ki. The procedure: 500 nL of 50× compound in 100% DMSO is added to a 384-well low volume, white assay plate. 19.5 μL of 1.3×CDK9/CyclinT1 (Wild-type, full length CDK9 in complex with wildtype, full length CyclinT1: Invitrogen Cat #PV4131) diluted in assay buffer (50 mM Hepes, 0.01% Brij-35, 10 mM MgCl2, 0.5 mM EGTA, 1% Glycerol, and 1.2 mM DTT) is added to the plates on top of the compound and pre-incubated for 30 minutes at room temperature. Following the incubation, 5 μL of 5×Sox-chromophore (CSox) labeled peptide substrate (AQT0449, AssayQuant) & ATP diluted in assay buffer is added to the plate to initiate the reaction. The assay is incubated at room temperature for 120 min after initiation. The CSox peptide substrate is phosphorylated by CDK9/T1 upon ATP hydrolysis.
The fluorescent intensity measurement of the assay plate for all assays described above is read on a microplate reader once the assay is initiated and again at the completion of the assay. Phosphorylation of the CSox-based peptide substrate sensor results in an immediate increase in fluorescence. These raw fluorescence intensity values are normalized to calculate percent inhibition, which are fit to a four-parameter logistic curve and IC50 values are calculated. IC50 values are converted to Ki using substrate, KM^app values, and the Cheng-Prusoff equation.
Target sequence in this assay (P50750 whole entry): as the sequence (P50750 whole entry) above
Target sequence in this assay (O60563 whole entry partner): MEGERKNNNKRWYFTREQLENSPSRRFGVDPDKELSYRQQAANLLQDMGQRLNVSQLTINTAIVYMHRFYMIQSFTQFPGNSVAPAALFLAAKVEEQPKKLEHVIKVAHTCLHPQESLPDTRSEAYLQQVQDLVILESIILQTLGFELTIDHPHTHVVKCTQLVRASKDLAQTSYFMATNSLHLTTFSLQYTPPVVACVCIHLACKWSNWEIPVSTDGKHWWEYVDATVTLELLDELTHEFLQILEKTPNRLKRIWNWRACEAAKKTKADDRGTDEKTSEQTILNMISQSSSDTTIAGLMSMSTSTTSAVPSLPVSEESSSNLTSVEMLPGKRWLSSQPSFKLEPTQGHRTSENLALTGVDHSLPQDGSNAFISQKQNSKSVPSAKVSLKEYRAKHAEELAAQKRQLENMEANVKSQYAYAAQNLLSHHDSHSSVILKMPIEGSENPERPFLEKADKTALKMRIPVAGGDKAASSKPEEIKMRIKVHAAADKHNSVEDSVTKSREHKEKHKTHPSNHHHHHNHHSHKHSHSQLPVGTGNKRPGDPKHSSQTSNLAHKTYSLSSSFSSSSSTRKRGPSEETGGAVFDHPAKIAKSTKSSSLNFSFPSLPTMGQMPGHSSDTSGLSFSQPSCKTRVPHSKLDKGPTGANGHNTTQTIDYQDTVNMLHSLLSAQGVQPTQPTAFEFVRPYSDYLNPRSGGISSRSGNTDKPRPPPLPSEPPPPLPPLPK

The target of a further experiment is T2, CDK6/CyclinD3 (Homo sapiens, UniProt Q00534).
T2 construct: Wild-type, full length CDK6 in complex with wildtype, full length CyclinD3: Carna Cat #04-107; purchased Carna 04-107
Nature of the experiment: CDK6/Cyclin D3 Mobility Shift Assay (Caliper, Table B). The settings on record: read-out: CDK6/CCND3 Caliper Ki: Average Ki. The procedure:
as §1, with “1.3×CDK6/D3” for “1.3×CDK9/T1”, “CDK6” for “CDK9”, “full length CyclinD3: Carna” for “CyclinT1 (1-259): Biortus”, “#04-107” for “#BP480/792/691”, “CDK6/D3” for “CDK9/T1”
as §2, with “Ki through” for “Ki”, “substrate and Km^app” for “substrate, Kmapp”

T2 sequence (Q00534 whole entry): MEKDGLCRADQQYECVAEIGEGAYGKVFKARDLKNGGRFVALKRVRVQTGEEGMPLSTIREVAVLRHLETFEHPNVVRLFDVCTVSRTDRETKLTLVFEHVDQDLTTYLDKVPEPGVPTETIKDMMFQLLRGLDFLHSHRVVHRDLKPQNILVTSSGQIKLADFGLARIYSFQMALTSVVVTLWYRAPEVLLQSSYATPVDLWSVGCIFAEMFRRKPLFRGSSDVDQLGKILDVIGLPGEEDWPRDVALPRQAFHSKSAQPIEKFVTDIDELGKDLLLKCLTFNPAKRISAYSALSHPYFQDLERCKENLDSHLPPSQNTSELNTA
T2 sequence (P30281 whole entry partner): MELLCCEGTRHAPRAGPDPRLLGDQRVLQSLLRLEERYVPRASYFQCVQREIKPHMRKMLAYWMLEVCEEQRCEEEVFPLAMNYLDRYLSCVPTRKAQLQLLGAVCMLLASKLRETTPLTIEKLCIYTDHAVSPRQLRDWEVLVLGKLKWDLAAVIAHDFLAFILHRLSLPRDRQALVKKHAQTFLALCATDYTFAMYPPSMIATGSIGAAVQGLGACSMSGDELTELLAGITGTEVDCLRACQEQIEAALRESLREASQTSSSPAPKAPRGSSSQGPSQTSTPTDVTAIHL

`NS(=O)(=O)c1ccc2cc1OCCCCCNC(=O)O[C@@H]1CC[C@@H](C1)c1cnc(nc1)N2` (stereo in doubt) [Compound 105, rel-(2S,5R)-7-oxo-6,14-dioxa-8,20,22,25-tetraazatetracyclo[19.2.2.1^{2,5}.1^{15,19}]heptacosa-1(23),15,17,19(26),21,24-hexaene-16-sulfonamide]: the Ki at CDK9/CyclinT1 [1] is at least 0.1 µM.

As for `O=C1NCCOCCNS(=O)(=O)c2ccc(c(F)c2)Nc2cc([nH]n2)[C@H]2CC[C@H](C2)O1` [Compound 89, (1^1S,1^3R,Z)-4^2-Fluoro-2^1H-9,14-dioxa-5-thia-3,6,12-triaza-2(5,3)-pyrazola-4(1,4)-benzena-1(1,3)-cyclopentanacyclotetradecaphan-13-one 5,5-dioxide], the Ki is at least 0.1 µM at CDK9/CyclinT1 [2] and 0.001 to 0.025 µM on CDK9/CyclinT1 [1].

Turning to `O=C1NCCCCCNS(=O)(=O)c2ccc(c(F)c2)Nc2cc([nH]n2)[C@H]2CC[C@H](C2)O1` [Compound 90, (1^1S,1^3R,Z)-4^2-fluoro-2^1H-14-oxa-5-thia-3,6,12-triaza-2(5,3)-pyrazola-4(1,4)-benzena-1(1,3)-cyclopentanacyclotetradecaphan-13-one 5,5-dioxide], the figures for the Ki at CDK9/CyclinT1 [2] and on CDK9/CyclinT1 [1] were at least 0.1 µM and 0.025 to 0.1 µM, respectively.

`O=C1NCCCCCCNS(=O)(=O)c2ccc(c(F)c2)Nc2cc([nH]n2)[C@H]2CC[C@H](C2)O1` [Compound 91, (1^1S,1^3R,Z)-4^2-fluoro-2^1H-15-oxa-5-thia-3,6,13-triaza-2(5,3)-pyrazola-4(1,4)-benzena-1(1,3)-cyclopentanacyclopentadecaphan-14-one 5,5-dioxide]: the Ki at CDK6/CyclinD3 is at least 0.1 µM; at CDK9/CyclinT1 [2] it was at least 0.1 µM; on CDK9/CyclinT1 [1], 0.025 to 0.1 µM.

For `O=C1NCCCCCCCNS(=O)(=O)c2ccc(c(F)c2)Nc2cc([nH]n2)[C@H]2CC[C@H](C2)O1` [Compound 92], the Ki on CDK6/CyclinD3 is 0.025 to 0.1 µM; on CDK9/CyclinT1 [2], at least 0.1 µM; on CDK9/CyclinT1 [1], 0.025 to 0.1 µM.

In the case of `O=C1NCCCn2cc(cn2)S(=O)(=O)N2CCC(CC2)Nc2cc([nH]n2)[C@H]2CC[C@H](C2)O1` [Compound 95, (1^1S, 1^3R,2^4Z,6^4E)-2^1H,6^1H-12-oxa-5-thia-3,10-diaza-4(4,1)-piperidina-2(5,3),6(4,1)-dipyrazola-1(1,3)-cyclopentanacyclododecaphan-11-one 5,5-dioxide], the Ki on CDK9/CyclinT1 [2] and at CDK9/CyclinT1 [1] was at least 0.1 µM throughout.

Take `O=C1NCCCCCn2cc(cn2)S(=O)(=O)N2CCC(CC2)Nc2cc([nH]n2)[C@H]2CC[C@H](C2)O1` [Compound 96, (1^1S,1^3R,2^4Z,6^4E)-2^1H,6^1H-14-oxa-5-thia-3,12-diaza-4(4,1)-piperidina-2(5,3),6(4,1)-dipyrazola-1(1,3)-cyclopentanacyclotetradecaphan-13-one 5,5-dioxide]: the Ki is 0.025 to 0.1 µM on CDK9/CyclinT1 [2] and at least 0.1 µM at CDK9/CyclinT1 [1].

For `O=C1NCCCCCCn2cc(cn2)S(=O)(=O)N2CCC(CC2)Nc2cc([nH]n2)[C@H]2CC[C@H](C2)O1` [Compound 97, (1^1S,1^3R,2^4Z,6^4E)-2^1H,6^1H-15-oxa-5-thia-3,13-diaza-4(4,1)-piperidina-2(5,3),6(4,1)-dipyrazola-1(1,3)-cyclopentanacyclopentadecaphan-14-one 5,5-dioxide], the Ki on CDK9/CyclinT1 [2] and at CDK9/CyclinT1 [1] was at least 0.1 µM in each case.

For `O=C1NCCCNS(=O)(=O)c2ccc(c(F)c2)Nc2cc([nH]n2)[C@H]2CC[C@H](C2)O1` [Compound 98, (1^1S, 1^3R,Z)-4^2-fluoro-2^1H-12-oxa-5-thia-3,6, 10-triaza-2(5,3)-pyrazola-4(1,4)-benzena-1(1,3)-cyclopentanacyclododecaphan-11-one 5,5-dioxide], the Ki on CDK9/CyclinT1 [2] is 0.025 to 0.1 µM; at CDK9/CyclinT1 [1], at least 0.1 µM.

In the case of `O=C1NCCCCNS(=O)(=O)c2ccc(c(F)c2)Nc2cc([nH]n2)[C@H]2CC[C@H](C2)O1` [Compound 99, (1^1S, 1^3R,Z)-4^2-fluoro-2^1H-13-oxa-5-thia-3,6,11-triaza-2(5,3)-pyrazola-4(1,4)-benzena-1(1,3)-cyclopentanacyclotridecaphan-12-one 5,5-dioxide], the Ki is 0.025 to 0.1 µM at CDK6/CyclinD3, at least 0.1 µM on CDK9/CyclinT1 [2] and at least 0.1 µM at CDK9/CyclinT1 [1].

Consider `CN1CCNC(=O)O[C@@H]2CC[C@@H](C2)c2cc(n[nH]2)Nc2ccc(cc2F)S(=O)(=O)NCC1` [Compound 100, (1^1S, 1^3R,Z)-4^2-fluoro-9-methyl-2^1H-14-oxa-5-thia-3,6,9,12-tetraaza-2(5,3)-pyrazola-4(1,4)-benzena-1(1,3)-cyclopentanacyclotetradecaphan-13-one 5,5-dioxide], for which the Ki on CDK9/CyclinT1 [2] and on CDK9/CyclinT1 [1] was at least 0.1 µM each time.

`CC1(C)CCCNS(=O)(=O)c2ccc(c(F)c2)Nc2cc([nH]n2)[C@H]2CC[C@H](C2)OC(=O)N1` [Compound 101, (1^1S,1^3R,Z)-4^2-fluoro-10,10-dimethyl-2^1H-13-oxa-5-thia-3,6,11-triaza-2(5,3)-pyrazola-4(1,4)-benzena-1(1,3)-cyclopentanacyclotridecaphan-12-one 5,5-dioxide]: the figures for the Ki on CDK9/CyclinT1 [2] and on CDK9/CyclinT1 [1] were 0.025 to 0.1 µM and at least 0.1 µM, respectively.

Regarding `O=C1NCC=CCNS(=O)(=O)c2ccc(c(F)c2)Nc2cc([nH]n2)[C@H]2CC[C@H](C2)O1` [Compound 102, (1^1S,1^3R,2^4Z)-4^2-fluoro-2^1H-13-oxa-5-thia-3,6,11-triaza-2(5,3)-pyrazola-4(1,4)-benzena-1(1,3)-cyclopentanacyclotridecaphan-8-en-12-one 5,5-dioxide], the Ki at CDK6/CyclinD3, at CDK9/CyclinT1 [2] and on CDK9/CyclinT1 [1] was at least 0.1 µM each time.
